Read-outs that look alike come from different tables or passages of the source.
What was measured:
[1] = tested on: acetic acid-induced writhing; assay: Writhing test (acetic acid); type: in vivo, rat;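 on Analgesic activity: ++ means marked effect and + means moderate effect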
Description: (§1) The analgesic activity of the compounds of formula (I) was tested in the following manner: […]
The compounds studied and saline were administered p.o. to rats. Forty-five minutes later, 1 ml of 1% acetic acid was administered i.p. The number of writhes was recorded in the following 25 minute period (Koster et al: Fed. Proc. 18:412, 1959).

[2] = tested on: carrageenan-induced oedema; assay: Inhibition of carrageenan-induced oedema; type: in vivo, rat;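 on Anti-inflammatory activity: ++ means marked effect and + means moderate effect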
Description: The anti-inflammatory activity of the compounds of the invention was determined by inhibition of the carrageenan induced oedema in rats by the compounds examined (Winter C. A. et al., Proc. Soc. Exp. Biol. Med. 111:544, 1962).

[3] = tested on: cattle (avoidance, muscle tone); assay: Tranquilizing or taming effect on cattle; type: in vivo
Description: (§2) The tranquilizing activity of the compounds was determined by the following methods:
(2) Tranquilizing or taming effect on cattle:
The test compounds were administered i.m. to cattle, mostly to heifers (150-200 kg).
The most suitable tranquilized state of an animal includes the ability to retain the upright position and coordination with minimal avoidance reactions to painful stimuli and handling. Thus, a combination of sedative and analgesic potency is required.

[4] = tested on: indomethacin-induced ulcers; assay: Preventive effect on formation of indomethacin-induced ulcers; type: in vivo, rat (female Sprague-Dawley); settings: for ED50: Rattus norvegicus, ip, 4 h, read-out: ED50 (ulcer prevention)
[5] = as above; type: in vivo, rat (female Sprague-Dawley); settings: rat, in vivo, iv; LD50 (mouse, i.v.) / ED50 (ulcer); read-out: Therapeutic Index
[6] = Acute toxicity in female NMRI mice, i.v.; settings: in vivo, iv, mouse
Description: Acute toxicity was determined by using female mice of NMRI-Strain with an age of about 7 months and weighing 30-40 g. The administration of the test compound was i.v.

[7] = tested on: male mice on a 55° C. hot plate; assay: Hot plate test; type: in vivo, mouse (male); settings: for change in vivo at 1.5 mg/kg: 1.5 mg/kg i.p.
Description: as §1
Test compounds or saline were given i.p. to male mice. Thirty minutes thereafter, the time for which the mice remained on a 55° C. plate was recorded. The results are expressed as compared to saline.

rats (blood pressure) = assay: Applicant's experiments on prior-art imidazoles: anti-hypertensive activity / blood pressure in rats; type: in vivo, rat; settings: for antihypertensive activity: found by our experiments
[8] = tested on: rats (motility, muscle tone, catalepsia); assay: Tranquilizing activity: Irwin screen in rats; type: in vivo, rat
Description: as §2
(1) Irwin screen in rats (Irwin S., Psychopharmacologia 13:222, 1968)
Especially sedatory and cataleptic activity and effects on muscle tone are observed.

[9] = tested on: spontaneous hypertensive rats (SHR) (blood pressure); assay: Blood pressure in unanesthetized Okamoto-Aoki spontaneous hypertensive rats (SHR), peroral; type: in vivo, rat (Okamoto-Aoki SHR)
Description: In a further test for anti-hypertensive properties, unanesthetized Okamoto-Aoki spontaneous hypertensive rats (SHR) were used. The test derivative was administered perorally by way of a tube into the stomach. The blood pressure was measured from the tail using an indirect bloodless method.

[10] = tested on: anesthetized Sprague-Dawley rats (blood pressure, pulse frequency); assay: Blood pressure and pulse frequency in anesthetized normal-weight Sprague-Dawley rats (i.v.); type: in vivo, rat (Sprague-Dawley); settings: for minimal effective dose: Rattus norvegicus, iv
Description: The anti-hypertensive properties of the imidazole derivatives of the present invention have been determined according to the following procedure. Sprague-Dawley rats of normal weight were first anesthetized with urethane. After this, the femoral artery was connected by way of a polyethylene tube with a blood pressure transducer. The test substance was then injected into the femoral vein and the blood pressure and the pulse frequency were registered with a recorder. The minimum doses producing a significant change were found, i.e. ± at least 20% in the case of blood pressure, and ± at least 3% in the case of pulse frequency.

[11] = Mus musculus, ip, 0.5 h, read-out: increase in HP-time (%)
[12] = read-out: Blood Pressure Minimum Dose having a significant lowering effect
[13] = read-out: Pulse frequency Minimum Dose having a significant lowering effect
[14] = 10 μg/kg i.v., anesthetized rats, on an average

Cc1cccc(Cc2c[nH]cn2)c1 [4-(3'-methylbenzyl)imidazole, 4-(3'-Methylbenzyl)imidazole]
Analgesic activity ([1]; 30 mg/kg): ++ | W-number ([1]; 30 mg/kg p.o.): 0 | Anti-inflammatory activity ([2]; 100 mg/kg p.o. in the rat): + | inhibition in vivo at 100 mg/kg ([2]; Rattus norvegicus, po, read-out: inhibition carrageenan-induced oedema (%)): 61% | loss of avoidance ([3]; 0.1 mg/kg i.m.): + | ED50 [4]: 0.02 mg/kg | selectivity ratio [5]: 1900 | LD50 [6]: 38 mg/kg | change in vivo at 1.5 mg/kg [7, 11]: 50%

CCc1[nH]cnc1Cc1ccccc1 [5(4)-ethyl-4(5)-benzylimidazole]
antihypertensive activity (rats (blood pressure)): no antihypertensive activity

Clc1ccccc1Cc1c[nH]cn1 [4-(2'-chlorobenzyl)imidazole, 4-(2'-Chlorobenzyl)imidazole]
catalepsia ([8]; 0.25 mg/kg): + | decrease of motility ([8]; 0.25 mg/kg): + | loss of avoidance ([3]; 0.1 mg/kg i.m.): + | ED50 [4]: 0.03 mg/kg | selectivity ratio [5]: 2170 | LD50 [6]: 65 mg/kg | Analgesic activity ([7]; 1.5 mg/kg): + | change in vivo at 1.5 mg/kg [7, 11]: 200%

Cc1cccc(C)c1C(O)c1c[nH]cn1 (stereo not drawn) [4-[α-(2',6'-Dimethylphenyl)]hydroxymethylimidazole]
decrease of blood pressure ([9]; awake SHR rats, 3 mg/kg p.o., 3 hours after administration): 20% | lowering of blood pressure ([10]; 300 μg/kg i.v.): noticeable | minimal effective dose [10, 12]: 0.1 to 3 mg/kg | minimal effective dose [10, 13]: 0.1 mg/kg | prevention of the formation of ulcers ([4]; 0.5 mg/kg): the prevention was partial | prevention of the formation of ulcers ([4]; 5 mg/kg): completely prevented the formation of ulcers | LD50 [6]: 125 mg/kg

Cc1cc(C)c(Cc2c[nH]cn2)c(C)c1 [4-(2',4',6'-trimethylbenzyl)imidazole, 4-(2',4',6'-Trimethylbenzyl)imidazole]
catalepsia ([8]; 1.0 mg/kg): + | decrease of motility ([8]; 1.0 mg/kg): ++ | loss of avoidance ([3]; 0.1 mg/kg i.m.): + | loss of muscle tone ([3]; 0.1 mg/kg i.m.): + | minimal effective dose [10, 12]: 0.05 to 0.2 mg/kg | minimal effective dose [10, 13]: 0.03 mg/kg | ED50 [4]: 0.03 mg/kg | selectivity ratio [5]: 2100 | LD50 [6]: 63 mg/kg

Cc1cccc(Cc2c[nH]cn2)c1C [4-(2',3'-dimethylbenzyl)imidazole, 4-(2',3'-Dimethylbenzyl)imidazole]
decrease of motility ([8]; 1.0 mg/kg): + | loss of muscle tone ([8]; 1.0 mg/kg): + | loss of avoidance ([3]; 0.1 mg/kg i.m.): ++ | minimal effective dose [10, 12]: 0.01 to 0.1 mg/kg | minimal effective dose ([10]; read-out: Pulse frequency Minimum Dose having a significant increasing effect): 3 to 10 mg/kg | minimal effective dose [10, 13]: 0.01 to 1 mg/kg | ED50 [4]: 0.005 mg/kg | selectivity ratio [5]: 7000 | LD50 [6]: 35 mg/kg | Analgesic activity ([7]; 0.6 mg/kg): + | change in vivo at 0.6 mg/kg ([7]; Mus musculus, ip, 0.5 h, 0.6 mg/kg i.p., read-out: increase in HP-time (%)): 200%

Cc1cccc(C)c1Cc1cnc[nH]1 [4-(2',6'-dimethylbenzyl)imidazole, 4-(2',6'-Dimethylbenzyl)imidazole]
decrease of motility ([8]; 1.0 mg/kg): ++ | loss of muscle tone ([8]; 1.0 mg/kg): + | decrease of blood pressure ([9]; awake SHR, 100 μg/kg p.o., four hours after administration): about 20% | decrease of blood pressure ([9]; awake SHR, 300 μg/kg p.o., four hours after administration): 25% | loss of avoidance ([3]; 0.05 mg/kg i.m.): ++ | loss of muscle tone ([3]; 0.05 mg/kg i.m.): + | lowering of the blood pressure ([10]; 1 μg/kg i.v., anesthetized rats): detectable lowering of the blood pressure | blood pressure lowering ([10]; 3 μg/kg i.v., anesthetized rats): quite clear | decrease of pulse frequency [10, 14]: 12% | reduction of blood pressure [10, 14]: 30% | therapeutic range ([10]; LD50 40 mg/kg i.v. in mice versus blood pressure lowering doses): very broad | minimal effective dose [10, 12]: 0.003 to 0.1 mg/kg | minimal effective dose [10, 13]: 0.003 mg/kg | duration of the effect ([10]; i.v., anesthetized rats, determination then interrupted): at least 50 minutes | prevention of the formation of ulcers ([4]; 5 μg/kg i.p.): completely prevented the formation of ulcers | ED50 [4]: 0.005 mg/kg | selectivity ratio [5]: 8000 | LD50 [6]: 40 mg/kg

Cc1[nH]cnc1Cc1ccccc1 [4-benzyl-5-methylimidazole]
antihypertensive activity (rats (blood pressure)): no antihypertensive activity | blood pressure change in rats (rats (blood pressure); rats, 1 mg/kg i.v.): the blood pressure rises | blood pressure lowering effect in rats (rats (blood pressure); rats, at any dosage): no blood pressure lowering effect

From US4443466A, “4-Benzyl- and 4-benzoyl-substituted imidazole derivatives and use as medicaments” (priority 1980, dated 1984)
